Data as given in patent US6562317B2, “Radioactive embolizing compositions” (Micro Therapeutics, Inc., priority 1997, dated 2003).

Assay: Cure of prepolymer injected into 0.1 N NaHCO3 aqueous solution simulating a blood environment
Type: physicochemical
Conditions: cyanoacrylate without iridium, same procedure
Procedure: About 0.2 cc of this composition was taken up in a 1 cc syringe through a 21 gage needle and injected into about 150 cc of a 0.1 N NaHCO3 aqueous solution to simulate a blood environment and cure the prepolymer. Upon injection, three small black/gray droplets were formed which immediately fell to the bottom of the container. It took about 15 minutes for the cyanoacrylate to fully cure and to be tack free.

C=C(C#N)C(=O)OCCCC [cyanoacrylate alone, n-butyl cyanoacrylate]
cure time compared with the iridium composition: cured in approximately the same time
